From ChEMBL document CHEMBL3421611, “New quinolone- and 1,8-naphthyridine-3-carboxamides as selective CB2 receptor agonists with anticancer and immuno-modulatory activity” (Eur J Med Chem, 2015)
Calls of active or inactive are those of the source. The rule behind the calls is not given here.

Columns and labels:
Cannabinoid receptor 2 [1] = biological target: T1, Cannabinoid receptor 2 (Homo sapiens, UniProt P34972); assay: Agonist activity at human CB2 receptor transfected in CHO cell membranes after 90 mins by [35S]-GTPgammaS assay; type: functional
Cannabinoid receptor 1 [2] = biological target: Cannabinoid receptor 1 (Homo sapiens, UniProt P21554); assay: Displacement of [3H]-CP-55940 from recombinant human CB1 receptor overexpressed in HEK293 cell membranes after 90 mins
Cannabinoid receptor 2 [3] = biological target: T1, Cannabinoid receptor 2; assay: Displacement of [3H]-CP-55940 from recombinant human CB2 receptor overexpressed in HEK293 cell membranes after 90 mins
Homo sapiens = species on record: Homo sapiens; assay: Selectivity index, ratio of Ki for recombinant human CB1 receptor to Ki for recombinant human CB2 receptor
PBMC [4] = assay: Antiinflammatory activity in human myelin basic protein activated PBMC isolated from healthy human assessed as inhibition of phosphorylated Akt expression at 10 uM after 6 days by Western blot analysis; type: functional, cell-based
PBMC [5] = assay: Antiinflammatory activity in human myelin basic protein activated PBMC isolated from healthy human assessed as inhibition of phosphorylated Cox-2 expression at 10 uM after 6 days by Western blot analysis; type: functional, cell-based
[6] = biological target: Cannabinoid receptor 1 (Rattus norvegicus) (UniProt P20272); assay: Agonist activity at CB1 receptor in rat cerebellar membranes at 3 uM after 90 mins by [35S]-GTPgammaS assay in presence of CB1 antagonist AM251; type: functional, cell membranes; conditions: Cerebellum, Membrane
CHO = assay: Effect on mock-transfected CHO cell membranes after 90 mins by [35S]-GTPgammaS assay; type: functional; conditions: Cricetulus griseus
Cannabinoid receptor 1 [7] = biological target: Cannabinoid receptor 1 (Rattus norvegicus, UniProt P20272); assay: Agonist activity at CB1 receptor in rat cerebellar membranes after 90 mins by [35S]-GTPgammaS assay; type: functional, cell membranes, Cerebellum, Membrane
[8] = biological target: Cannabinoid receptor 1 (Rattus norvegicus) (UniProt P20272); assay: Agonist activity at CB1 receptor in rat cerebellar membranes after 90 mins by [35S]-GTPgammaS assay relative to 2-AG; type: functional, cell membranes; conditions: Cerebellum, Membrane
LNCaP [9] = assay: Cytotoxicity against human LNCAP cells expressing CB2 receptor assessed as decrease in cell viability after 72 hrs by neutral red uptake and accumulation assay
LNCaP [10] = assay: Cytotoxicity against human LNCAP cells expressing CB2 receptor assessed as decrease in cell viability at 5 uM after 72 hrs by neutral red uptake and accumulation assay in presence of CB2 receptor antagonist MC21 relative to control; type: functional, cell-based
PBMC [11] = assay: Immunomodulatory activity in human myelin basic protein activated PBMC isolated from healthy human assessed as viable cells at 10 uM after 6 days by trypan blue staining-based haemocytometric analysis; type: functional; conditions: 144 h, read-out: Activity
PBMC [12] = assay: Immunomodulatory activity in human myelin basic protein activated PBMC isolated from multiple sclerosis patient assessed as decrease in cell proliferation at 10 uM after 6 days by trypan blue staining-based haemocytometric analysis relative to control; type: functional
PBMC [13] = assay: Immunomodulatory activity in human myelin basic protein activated PBMC isolated from healthy human assessed as inhibition of CD54 expression at 10 uM after 6 days by flow cytometric analysis; type: functional, cell-based
PBMC [14] = assay: Immunomodulatory activity in human myelin basic protein activated PBMC isolated from healthy human assessed as inhibition of CD69 expression at 10 uM after 6 days by flow cytometric analysis; type: functional, cell-based
PBMC [15] = assay: Immunomodulatory activity in human myelin basic protein activated PBMC isolated from healthy human assessed as inhibition of CD25 expression at 10 uM after 6 days by flow cytometric analysis; type: functional, cell-based
PBMC [16] = assay: Immunomodulatory activity in human myelin basic protein activated PBMC isolated from healthy human assessed as inhibition of CD62 expression at 10 uM after 6 days by flow cytometric analysis; type: functional, cell-based
PBMC [17] = assay: Immunomodulatory activity in human myelin basic protein activated PBMC isolated from healthy human assessed as inhibition of CD49d expression at 10 uM after 6 days by flow cytometric analysis; type: functional, cell-based
PBMC [18] = assay: Antiinflammatory activity in human myelin basic protein activated PBMC isolated from healthy human assessed as inhibition of phosphorylated Cox-2 expression after 6 days by Western blot analysis; type: functional, cell-based
PBMC [19] = assay: Antiinflammatory activity in human myelin basic protein activated PBMC isolated from multiple sclerosis patient assessed as inhibition of phosphorylated Akt expression at 10 uM after 6 days by Western blot analysis; type: functional, cell-based
PBMC [20] = assay: Antiinflammatory activity in human myelin basic protein activated PBMC isolated from multiple sclerosis patient assessed as inhibition of phosphorylated Cox-2 expression at 10 uM after 6 days by Western blot analysis; type: functional, cell-based
[21] = biological target: Cannabinoid receptor 1 (Rattus norvegicus) (UniProt P20272); assay: Modulation of CB1 receptor-mediated G protein activity in rat cerebellar membranes at < 10 uM after 90 mins by [35S]-GTPgammaS assay; type: functional, cell membranes; conditions: Cerebellum, Membrane
LNCaP [22] = assay: Cytotoxicity against human LNCAP cells expressing CB2 receptor assessed as decrease in cell viability at 2 uM after 72 hrs by neutral red uptake and accumulation assay in presence of CB2 receptor antagonist MC21 relative to control; type: functional, cell-based
PBMC [23] = assay: Immunomodulatory activity in human myelin basic protein activated PBMC isolated from healthy human assessed as decrease in cell proliferation after 6 days by trypan blue staining-based haemocytometric analysis relative to control; type: functional
PBMC [24] = assay: Immunomodulatory activity in human myelin basic protein activated PBMC isolated from multiple sclerosis patient assessed as decrease in cell proliferation after 6 days by trypan blue staining-based haemocytometric analysis relative to control; type: functional
PBMC [25] = assay: Immunomodulatory activity in human myelin basic protein activated PBMC isolated from healthy human assessed as inhibition of CD54 expression after 6 days by flow cytometric analysis; type: functional, cell-based
PBMC [26] = assay: Immunomodulatory activity in human myelin basic protein activated PBMC isolated from healthy human assessed as inhibition of CD69 expression after 6 days by flow cytometric analysis; type: functional, cell-based
PBMC [27] = assay: Immunomodulatory activity in human myelin basic protein activated PBMC isolated from healthy human assessed as inhibition of CD25 expression after 6 days by flow cytometric analysis; type: functional, cell-based
PBMC [28] = assay: Immunomodulatory activity in human myelin basic protein activated PBMC isolated from healthy human assessed as inhibition of CD62 expression after 6 days by flow cytometric analysis; type: functional, cell-based
PBMC [29] = assay: Immunomodulatory activity in human myelin basic protein activated PBMC isolated from healthy human assessed as inhibition of CD49d expression after 6 days by flow cytometric analysis; type: functional, cell-based
PBMC [30] = assay: Immunomodulatory activity in human myelin basic protein activated PBMC isolated from multiple sclerosis patient assessed as inhibition of CD54 expression at 10 uM after 6 days by flow cytometric analysis; type: functional, cell-based
PBMC [31] = assay: Immunomodulatory activity in human myelin basic protein activated PBMC isolated from multiple sclerosis patient assessed as inhibition of CD25 expression at 10 uM after 6 days by flow cytometric analysis; type: functional, cell-based
PBMC [32] = assay: Immunomodulatory activity in human myelin basic protein activated PBMC isolated from multiple sclerosis patient assessed as inhibition of CD49d expression at 10 uM after 6 days by flow cytometric analysis; type: functional, cell-based
PBMC [33] = assay: Antiinflammatory activity in human myelin basic protein activated PBMC isolated from healthy human assessed as inhibition of phosphorylated Akt expression after 6 days by Western blot analysis; type: functional, cell-based

Sequence of Cannabinoid receptor 1 (Rattus norvegicus) (P20272 whole entry): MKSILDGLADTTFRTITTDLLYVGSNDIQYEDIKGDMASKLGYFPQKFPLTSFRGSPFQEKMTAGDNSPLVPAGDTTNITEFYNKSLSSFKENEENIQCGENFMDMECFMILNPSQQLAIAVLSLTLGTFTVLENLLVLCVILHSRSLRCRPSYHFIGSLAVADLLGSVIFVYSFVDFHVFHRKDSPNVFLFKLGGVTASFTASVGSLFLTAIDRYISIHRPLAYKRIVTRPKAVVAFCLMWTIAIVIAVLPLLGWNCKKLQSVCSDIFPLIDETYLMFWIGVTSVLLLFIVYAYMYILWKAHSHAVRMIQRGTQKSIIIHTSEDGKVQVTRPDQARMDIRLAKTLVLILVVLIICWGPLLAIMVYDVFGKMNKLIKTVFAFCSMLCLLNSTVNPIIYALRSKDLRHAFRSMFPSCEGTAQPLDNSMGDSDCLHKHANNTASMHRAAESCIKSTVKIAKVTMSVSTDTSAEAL
Sequence of Cannabinoid receptor 1 (Homo sapiens, UniProt P21554) (P21554 whole entry): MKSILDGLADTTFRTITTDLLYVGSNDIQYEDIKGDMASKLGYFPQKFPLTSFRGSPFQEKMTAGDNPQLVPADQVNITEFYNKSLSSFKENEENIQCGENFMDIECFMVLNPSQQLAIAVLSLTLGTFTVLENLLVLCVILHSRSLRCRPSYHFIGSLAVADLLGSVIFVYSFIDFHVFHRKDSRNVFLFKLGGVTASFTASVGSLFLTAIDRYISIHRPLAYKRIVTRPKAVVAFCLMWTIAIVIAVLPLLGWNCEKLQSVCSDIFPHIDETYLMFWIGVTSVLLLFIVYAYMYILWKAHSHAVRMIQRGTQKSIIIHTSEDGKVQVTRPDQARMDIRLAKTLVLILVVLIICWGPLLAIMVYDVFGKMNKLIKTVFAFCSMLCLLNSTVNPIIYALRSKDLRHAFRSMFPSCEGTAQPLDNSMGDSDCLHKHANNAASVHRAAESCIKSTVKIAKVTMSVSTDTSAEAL
T1 sequence (P34972 whole entry): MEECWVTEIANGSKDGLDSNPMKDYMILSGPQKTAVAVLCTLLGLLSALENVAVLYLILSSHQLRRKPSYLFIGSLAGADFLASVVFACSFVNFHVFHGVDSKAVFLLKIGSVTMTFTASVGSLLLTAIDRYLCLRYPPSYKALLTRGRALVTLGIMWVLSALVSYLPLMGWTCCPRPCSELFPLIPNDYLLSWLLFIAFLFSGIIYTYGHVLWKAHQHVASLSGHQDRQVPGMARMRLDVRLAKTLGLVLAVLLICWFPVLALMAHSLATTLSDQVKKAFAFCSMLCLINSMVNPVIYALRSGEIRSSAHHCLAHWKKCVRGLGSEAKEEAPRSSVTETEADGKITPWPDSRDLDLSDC
Sequence of Cannabinoid receptor 1 (Rattus norvegicus, UniProt P20272) (P20272 whole entry): as the sequence (P20272 whole entry) above

Structure (SMILES): CCCCCCC(C)(C)c1cc(O)c2c(c1)OC(C)(C)[C@@H]1CC=C(CO)C[C@@H]21
- Emax (Cannabinoid receptor 2 [1]): 290%

Structure (SMILES): CC1CCC(NC(=O)c2c(O)c3cccnc3n(CCN3CCOCC3)c2=O)CC1 (configuration not stated)
- Ki (Cannabinoid receptor 1 [2]): 630 nM
- Ki (Cannabinoid receptor 2 [3]): 7.44 nM
- Ratio Ki (Homo sapiens): 85

Structure (SMILES): CC1CCC(NC(=O)c2cc3ccccc3n(CCN3CCOCC3)c2=O)CC1 (configuration not stated)
- Ki (Cannabinoid receptor 1 [2]): 800 nM
- Ki (Cannabinoid receptor 2 [3]): 4.2 nM
- Ratio Ki (Homo sapiens): 190

Structure (SMILES): CC1CCC(NC(=O)c2cc3ccccc3n(Cc3ccc(F)cc3)c2=O)CC1 (configuration not stated)
- Ki (Cannabinoid receptor 1 [2]): 19.4 nM
- Ki (Cannabinoid receptor 2 [3]): 0.75 nM
- Ratio Ki (Homo sapiens): 27.7

Structure (SMILES): CCCCn1c(=O)c(C(=O)NC2CCC(C)CC2)cc2ccccc21 (configuration not stated)
- Ki (Cannabinoid receptor 1 [2]): 551 nM
- Ki (Cannabinoid receptor 2 [3]): 19.8 nM
- Ratio Ki (Homo sapiens): 28

Structure (SMILES): CCCCCn1c(=O)c(C(=O)NC2CCC(C)CC2)cc2ccccc21 (configuration not stated)
- inhibition (PBMC [4]): Active
- inhibition (PBMC [5]): Active
- Ki (Cannabinoid receptor 1 [2]): 227 nM
- Ki (Cannabinoid receptor 2 [3]): 1.5 nM
- EC50 (Cannabinoid receptor 2 [1]): 2 nM
- Emax (Cannabinoid receptor 2 [1]): 280%
- Activity [6]: inactive
- Activity (CHO): inactive
- EC50 (Cannabinoid receptor 1 [7]): 2510 nM
- Emax [8]: 230%
- IC50 (LNCaP [9]): 3900 nM
- Activity (LNCaP [10]): inactive
- viability at 10 µM (PBMC [11]): 71.5%
- Activity (PBMC [12]): Active
- inhibition (PBMC [13]): inactive
- inhibition (PBMC [14]): Active
- inhibition (PBMC [15]): Active
- inhibition (PBMC [16]): inactive
- inhibition (PBMC [17]): inactive

Structure (SMILES): CCCCn1c(=O)c(C(=O)NC2CCC(C)CC2)c(O)c2cccnc21 (configuration not stated)
- Ki (Cannabinoid receptor 1 [2]): 701 nM
- Ki (Cannabinoid receptor 2 [3]): 11.2 nM
- Ratio Ki (Homo sapiens): 62

Structure (SMILES): CC1CCC(NC(=O)c2cc3ccccc3n(CCCO)c2=O)CC1 (configuration not stated)
- Ki (Cannabinoid receptor 1 [2]): 3760 nM
- Ki (Cannabinoid receptor 2 [3]): 36 nM
- Ratio Ki (Homo sapiens): 104

Structure (SMILES): CC1CCC(NC(=O)c2c(O)c3cccnc3n(CCCO)c2=O)CC1 (configuration not stated)
- Ki (Cannabinoid receptor 1 [2]): > 10000 nM
- Ki (Cannabinoid receptor 2 [3]): 215 nM
- Ratio Ki (Homo sapiens): > 4.6

Structure (SMILES): CC1CCC(NC(=O)c2c(O)c3cccnc3n(Cc3ccc(F)cc3)c2=O)CC1 (configuration not stated)
- inhibition (PBMC [18]): Dose-dependent effect
- inhibition (PBMC [19]): Active
- inhibition (PBMC [20]): Active
- Ki (Cannabinoid receptor 1 [2]): 138 nM
- Ki (Cannabinoid receptor 2 [3]): 0.75 nM
- EC50 (Cannabinoid receptor 2 [1]): 3.16 nM
- Emax (Cannabinoid receptor 2 [1]): 216%
- Activity (CHO): inactive
- Activity [21]: inactive
- IC50 (LNCaP [9]): 2080 nM
- Activity (LNCaP [22]): inactive
- Activity (PBMC [23]): Dose-dependent effect
- Activity (PBMC [24]): Dose-dependent effect
- inhibition (PBMC [25]): Dose-dependent effect
- inhibition (PBMC [26]): Dose-dependent effect
- inhibition (PBMC [27]): Dose-dependent effect
- inhibition (PBMC [28]): Dose-dependent effect
- inhibition (PBMC [29]): Dose-dependent effect
- inhibition (PBMC [30]): Active
- inhibition (PBMC [31]): Active
- inhibition (PBMC [32]): Active
- inhibition (PBMC [33]): Dose-dependent effect

Structure (SMILES): CCCC(C)(C)c1ccc2c(c1)OC(C)(C)[C@@H]1CC=C(C)C[C@@H]21
- IC50 (LNCaP [9]): 11600 nM

Structure (SMILES): CCCn1c(=O)c(C(=O)NC2CCC(C)CC2)cc2ccccc21 (configuration not stated)
- Ki (Cannabinoid receptor 1 [2]): 2610 nM
- Ki (Cannabinoid receptor 2 [3]): 25.4 nM
- Ratio Ki (Homo sapiens): 102
